Target: T1, Protein ENL (Homo sapiens, UniProt Q03111)
T1 sequence (Q03111 whole entry): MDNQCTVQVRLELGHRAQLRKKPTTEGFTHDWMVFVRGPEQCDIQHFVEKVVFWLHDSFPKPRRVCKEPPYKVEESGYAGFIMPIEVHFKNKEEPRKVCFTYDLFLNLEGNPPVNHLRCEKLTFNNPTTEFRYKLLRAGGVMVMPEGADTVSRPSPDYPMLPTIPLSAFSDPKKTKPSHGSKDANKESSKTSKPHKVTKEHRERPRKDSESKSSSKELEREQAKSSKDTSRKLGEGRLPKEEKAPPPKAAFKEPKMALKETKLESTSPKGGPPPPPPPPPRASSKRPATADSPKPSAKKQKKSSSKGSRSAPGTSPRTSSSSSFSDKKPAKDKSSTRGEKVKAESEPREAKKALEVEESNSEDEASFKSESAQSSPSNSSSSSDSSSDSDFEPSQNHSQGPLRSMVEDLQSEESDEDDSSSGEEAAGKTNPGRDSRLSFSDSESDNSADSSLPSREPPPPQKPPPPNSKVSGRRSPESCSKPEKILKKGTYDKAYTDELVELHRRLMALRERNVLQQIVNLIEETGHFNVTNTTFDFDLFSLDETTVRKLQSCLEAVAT
Assay: Inhibition of human His-ENL YEATS domain and biotinylated H3K9ac peptide interaction by AlphaScreen assay

Row | IC50 [µM] | Compound
1 | 0.202 | O=C(NCc1cccc(CN2CCC2)c1)c1ccc2nncn2c1
2 | 0.185 | CC1CCN1Cc1ccc(CNC(=O)c2ccc3nncn3c2)cc1 (stereo not drawn)
3 | > 5 | O=C(NCc1ccc(CNc2ccc(F)cn2)cc1)c1ccc2nncn2c1
4 | > 1 | CC(NC(=O)c1ccc2nncn2c1)c1ccc(CN2CCC2)cc1 (stereo not drawn)
5 | > 5 | O=C(NCc1ccc(CN2CCC2)cc1)c1ccc2ncnn2c1
6 | > 1 | CC(C)c1cnc(NCc2ccc(CNC(=O)c3ccc4nncn4c3)cc2)nc1
7 | > 2 | O=C(NCc1ccc(CNc2nc(F)ccc2F)cc1)c1ccc2nncn2c1
8 | > 5 | Cc1cc2ncc(C(=O)NCc3ccc(CN4CCC4)cc3)cn2n1

— ChEMBL document CHEMBL4808215, “Discovery of Selective Small-Molecule Inhibitors for the ENL YEATS Domain” (J Med Chem, 2021)
